Here are results for 47 molecules from ChEMBL document CHEMBL1201862, “PubChem BioAssay data set” (2004).

The target of experiment [1] is T1, Heat shock factor protein 1 (Mus musculus, UniProt P38532).
T1 sequence (P38532 whole entry): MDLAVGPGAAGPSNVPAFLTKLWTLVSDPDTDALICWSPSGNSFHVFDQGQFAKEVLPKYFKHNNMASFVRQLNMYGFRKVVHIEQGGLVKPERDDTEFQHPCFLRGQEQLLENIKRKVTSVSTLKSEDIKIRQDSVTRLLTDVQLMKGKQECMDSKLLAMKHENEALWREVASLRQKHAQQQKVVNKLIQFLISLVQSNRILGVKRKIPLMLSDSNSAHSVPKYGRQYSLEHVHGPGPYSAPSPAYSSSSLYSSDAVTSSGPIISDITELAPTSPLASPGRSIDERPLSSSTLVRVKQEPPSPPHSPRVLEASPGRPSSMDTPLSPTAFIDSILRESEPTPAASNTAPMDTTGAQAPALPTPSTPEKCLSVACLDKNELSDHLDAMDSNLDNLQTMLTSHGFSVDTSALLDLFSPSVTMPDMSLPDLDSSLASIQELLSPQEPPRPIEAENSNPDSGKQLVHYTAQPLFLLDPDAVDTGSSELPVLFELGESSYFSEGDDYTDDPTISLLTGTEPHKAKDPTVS
The experiment can be described thus: enhancement of HSF1-driven luciferase signal – cell-based, NIH3T3, luminescence, dose retest, confirmation (AID 435004).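 Further: stress induced by proteasome inhibitor MG132 added 30 min after compound; luciferase reporter driven by HSF1 response element in NIH3T3 cells; actives raise luminescence as potentiators of the MG132 stress response.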 It is filed as functional.

Experiment [2] addresses Cytochrome P450 2D6 (Homo sapiens, UniProt P10635).
A short description of experiment [3]: luciferase reporter signal suppression in cells – H4 neuroglioma cells, luminescence, dose response (AID 1990). It is filed as functional, cell-based. In general terms: A reporter such as luciferase makes a cellular process visible.
Experiment [4] is described as follows: Luminescence Cell-Based Dose Response HTS to Identify Inhibitors of 5'UTR Stem-Loop Driven Prion Protein mRNA Translation in H4 Neuroglioblastoma Cells. [Related pubchem assays: 1827 (Project Summary), 1813 (Primary HTS)]. In kind it is functional.
Experiment [5] is described as follows: alpha-synuclein stem-loop luciferase translation blockers – H4 neuroglioma cells, luminescence, confirmation (AID 1988). In kind it is functional, cell-based.
For experiment [6], the target named is T1, Heat shock factor protein 1. The experiment is described as follows: decrease of HSF1-responsive luciferase luminescence – cell-based, NIH3T3, dose retest, confirmation (AID 2382).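 Further: NIH3T3 fibroblasts with HSF1-driven luciferase reporter stressed by proteasome inhibitor MG132; luminescence from HSF1-driven luciferase expression after 8 hours of MG132 stress.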 It is filed as functional.
A short description of experiment [7]: viability of uninfected HEp-2 cells – cell-based, HTS, cytotoxicity control for RSV inhibitor project, dose response (AID 2410). It is filed as functional. The settings on record: human respiratory syncytial virus.
The target in experiment [8] is Cytochrome P450 2C9 (Homo sapiens, UniProt P11712).
Sequence of Cytochrome P450 2C9 (P11712 whole entry): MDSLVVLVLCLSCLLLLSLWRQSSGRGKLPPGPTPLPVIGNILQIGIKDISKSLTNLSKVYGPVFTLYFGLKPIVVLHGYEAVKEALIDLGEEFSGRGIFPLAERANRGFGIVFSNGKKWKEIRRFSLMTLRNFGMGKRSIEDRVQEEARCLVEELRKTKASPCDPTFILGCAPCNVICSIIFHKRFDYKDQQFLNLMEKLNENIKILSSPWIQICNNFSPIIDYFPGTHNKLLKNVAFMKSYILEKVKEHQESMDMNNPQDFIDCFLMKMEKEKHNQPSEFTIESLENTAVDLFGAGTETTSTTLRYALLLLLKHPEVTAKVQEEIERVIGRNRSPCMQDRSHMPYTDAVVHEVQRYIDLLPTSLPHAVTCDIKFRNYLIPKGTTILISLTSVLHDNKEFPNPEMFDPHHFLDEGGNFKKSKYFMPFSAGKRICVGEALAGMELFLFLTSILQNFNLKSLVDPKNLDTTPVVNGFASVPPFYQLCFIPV
The nature of experiment [9]: Trypanosoma cruzi growth suppression in host cells – NIH3T3 host cells, beta-gal luminescence, confirmation (AID 2044).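 Further: intracellular parasites grown in NIH/3T3 mouse fibroblasts as host cells; luminescent beta-galactosidase reporter signal from transgenic T. cruzi replicating inside host cells; inhibitors lower the luminescence signal.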 It is filed as functional, cell-based.
A short description of experiment [10]: NIH3T3 cell viability loss – ATP luminescence, mouse fibroblasts, counter-screen, dose response (AID 2010).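 Further: cells exposed to compound for about 90 hours before reading.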 In kind it is functional, cell-based. A general note: A counterscreen serves to expose hits that act by an unwanted route or on another target.

Activity calls are given as the source filed them. For most assays here, no stated cut-off is given here; in the data, actives have a measured EC50 and inactives only a lower limit.

Sequence of Cytochrome P450 2D6 (P10635 whole entry): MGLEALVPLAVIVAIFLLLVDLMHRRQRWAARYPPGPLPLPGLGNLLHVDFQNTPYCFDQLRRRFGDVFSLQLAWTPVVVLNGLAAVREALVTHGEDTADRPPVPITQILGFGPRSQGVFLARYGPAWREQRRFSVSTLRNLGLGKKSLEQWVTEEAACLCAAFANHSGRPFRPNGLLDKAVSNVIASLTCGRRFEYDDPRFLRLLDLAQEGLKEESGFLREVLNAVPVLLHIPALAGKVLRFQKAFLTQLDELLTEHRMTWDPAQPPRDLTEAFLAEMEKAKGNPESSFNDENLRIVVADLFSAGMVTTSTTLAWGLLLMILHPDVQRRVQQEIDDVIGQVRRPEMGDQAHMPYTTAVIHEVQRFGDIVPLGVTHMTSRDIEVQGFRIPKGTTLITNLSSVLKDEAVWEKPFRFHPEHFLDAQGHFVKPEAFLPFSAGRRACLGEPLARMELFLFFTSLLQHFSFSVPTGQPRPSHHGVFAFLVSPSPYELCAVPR

A word on the EC50: it is the concentration at which the effect is half-maximal. Consider `CCN(CC)S(=O)(=O)c1ccc(C(=O)NN(C)C2=NS(=O)(=O)c3ccccc32)cc1`, for which the EC50 in [1] is > 260 µM (inactive). The term AC50 denotes the concentration giving half of the maximal activity seen. For `CCCC[C@@H]1C[C@H]1C(NC(=O)c1cccnc1)c1ccc(Cl)cc1` (stereo partly specified), the AC50 in [2] is 25.1 µM (inconclusive). Consider `CC(C)c1nc2oc3c(NCc4ccccn4)ncnc3c2c2c1COC(C)(C)C2`, for which the EC50 in [3] was 33 µM (active); in experiment [4] it was > 120 µM (not active); in [5] it was 16.7 µM (active). Consider `CC(=O)Nc1ccc(-c2nnn(CC(=O)Nc3ccc4c(c3)OCO4)n2)cc1Cl`, for which the EC50 in experiment [6] was > 195 µM (not active).

On to `Cc1cc(/C=C(/C#N)c2cccc(Cl)c2)c(C)n1C`, for which the EC50 in experiment [1] is > 260 µM (inactive). As usually defined, the CC50 is the concentration at which the toxic effect on the cells reaches its halfway point. As for `O=S(=O)(c1ccccc1)N1CCCC(c2nc(O)c3nnn(Cc4ccc5c(c4)OCCO5)c3n2)C1` (stereo unspecified), the CC50 in experiment [7] is 16.9 µM (active). For `c1ccc2c(c1)nnn1c3ccccc3nc21`, in [1], the EC50 is > 260 µM (inactive). With `CSc1ccccc1C(=O)N1CCN(c2ncccn2)CC1`, the EC50 in experiment [6] is > 195 µM (not active). Same read-out and setting: the value for `C=CCn1c(C)nnc1SCC(=O)Nc1nc(C)c(C(=O)N(C)C)s1` was > 195 µM (not active). Take `Cc1cc(=O)oc2c(C)c(OC(C)C(=O)NCC(O)c3ccccc3)ccc12` (stereo unspecified): the EC50 in experiment [1] was > 260 µM (inactive). In the case of `CCCC[C@@H]1C[C@H]1C(NC(=O)Cc1ccccc1)c1ccc(Cl)cc1` (stereo partly specified), the AC50 was 7.94 µM (inconclusive) in experiment [2] and 1.26 µM (inconclusive) in [8]. With `COc1ccc(C2C(C#N)=C(N)N(c3ccccc3)C3=C2C(=O)CCC3)cc1Cn1cc([N+](=O)[O-])cn1` (stereo unspecified), the EC50 in experiment [3] was 13.2 µM (active); in [4], 17.1 µM (active); in experiment [5], 105 µM (active). In the case of `Cc1ccc(OCC(=O)N2CCN(c3ccc([N+](=O)[O-])c(N4CCOCC4)c3)CC2)cc1`, the AC50 in [2] is 12.6 µM (inconclusive).

`C/C(=N\NC(=O)c1nnn(-c2nonc2N)c1C(C)C)c1cc(C)sc1C`: in [7], the CC50 is > 50 µM (active).

Turning to `COC(=O)C(c1ccccc1)C1(O)CC(C)N(C)CC1C` (stereo unspecified), in experiment [6], the concentration for a half-maximal effect (EC50) is given as > 195 µM (not active). Same read-out and setting: in the case of `CC[C@@H](C)[C@H](NC(=O)Cc1c(C)c2cc3c(C)c(C)oc3c(C)c2oc1=O)C(=O)O` it was > 195 µM (not active). On the same count and under the same terms, in the case of `CCCCNCCOCCOc1ccccc1-c1ccccc1` it was > 195 µM (not active); in that of `Cc1nccn1Cc1cccc2ccccc12`, > 195 µM (not active). With `CC(C)[C@H](N)c1nnc(SC/C=C/c2ccccc2)o1`, the half-maximal activity concentration (AC50) is 35.5 µM (inconclusive) in experiment [2] and 0.0562 µM (inconclusive) in experiment [8].

For the molecule `CCc1ccc(-c2nc(C[S+]([O-])CC(=O)NCc3cccnc3)c(C)o2)cc1` (stereo unspecified), the EC50 in experiment [6] was > 195 µM (not active). `Nc1nc(SC/C=C\c2ccccc2)c2nc[nH]c2n1`: the results for the AC50 in experiment [2] and in experiment [8] were 3.16 µM (inconclusive) and 3.98 µM (inconclusive), respectively.

With `COc1cccc(Nc2nc(N)nc(C(F)(F)F)n2)c1`, the CC50 in [7] was 20.4 µM (active). For the molecule `Fc1cc(F)cc(-c2oncc2-c2nnnn2-c2ccccc2)c1`, the half-maximal effective concentration (EC50) in experiment [6] is reported as > 195 µM (not active). Take `COc1ccc(NC(=O)CSc2nc(N)c3cc4c(nc3n2)CCCC4)cc1`: in experiment [1], the EC50 is 53.3 µM (active). Take `Cc1c(C)c2ccc(OS(C)(=O)=O)c(C)c2oc1=O`: the CC50 in experiment [7] is > 50 µM (active). Turning to `CC(C)N(Cc1ccccc1)C(=O)COC(=O)/C=C/c1cnc2ccccc2n1`, in [1], the EC50 was 23 µM (active). As for `Cc1cc(N2CCN(C)CC2)ccc1NC(=O)c1cccc(S(=O)(=O)N2CCc3ccccc3C2)c1`, the EC50 was 9.2 µM (active) in [3]; > 120 µM (not active) in experiment [4]; > 120 µM (not active) in [5]; 1.43 µM (active) in [9]; 8.5 µM (active) in experiment [10]. With `O=C(O)CCC1(C(=O)O)OCCc2ccccc21` (stereo unspecified), the EC50 in experiment [6] was > 195 µM (not active). Still for that read-out and setting: in the case of `CCOC(=O)c1cnc2ccc(C(=O)OC)cc2c1NCCCN1CCOCC1` it was > 195 µM (not active). On to `CCC(CO)NCC#Cc1ccccc1` (stereo unspecified), for which the EC50 in experiment [1] was > 260 µM (inactive).

As to `Cc1cccc(N/N=C(\C=O)C(=O)c2ccc(Br)cc2)c1`, the EC50 in experiment [1] was > 260 µM (inactive). Turning to `O=S(=O)(Nc1cccc(-n2cnnn2)c1)c1cc(Cl)ccc1Cl`, the EC50 in experiment [6] is given as > 195 µM (not active).

As for `O=C1CN(C(=O)COc2c(Cl)cccc2Cl)c2ccccc2N1`, the EC50 in experiment [6] was > 195 µM (not active). Still for that read-out and setting: the value for `COc1cccc(NC(=O)CCSc2nnc3scc(-c4ccccc4)n23)c1` was > 195 µM (not active).

Regarding `CCCCCSc1nc2c(c(=O)[nH]c(=O)n2C)n1C(C)C`, the EC50 in experiment [3] is > 120 µM (not active); in experiment [4] it was 16.5 µM (active); in experiment [5] it was 12.5 µM (active). In the same order, the values of `COc1ccc(NC(=O)C(=O)NCC(c2ccco2)N2CCc3ccccc32)cc1` (stereo unspecified) are 104 µM (active), 0.127 µM (active) and 0.11 µM (active). With `O=C(CSc1nnc(-c2ccccc2)c(-c2ccccc2)n1)N1CCc2ccccc21`, the EC50 in experiment [1] is > 260 µM (inactive). Regarding `CN1CCN(c2ccc([N+](=O)[O-])cc2NC(=O)c2ccccc2Cl)CC1`, the AC50 in experiment [2] was 17.8 µM (inconclusive). For the molecule `Cc1cccc(OC2CCN(Cc3nc(CC4CC4)no3)CC2)c1`, the EC50 in experiment [3] is > 120 µM (not active); in experiment [4], > 120 µM (not active); in experiment [5], 55.7 µM (active).

On to `Cc1ccc(C(=O)Nc2ccc3c(c2)C(=O)NC3=O)cc1`, for which the EC50 in [6] was > 195 µM (not active). As for `O=[N+]([O-])c1cc([N+](=O)[O-])c(N2CCOCC2)cc1NCc1ccccc1`, the EC50 in experiment [1] is > 260 µM (inactive).

As to `c1ccc2oc(C3=NCCN3)cc2c1`, the AC50 in [2] is 39.8 µM (inconclusive). Regarding `O=C(CN1C(=O)/C(=C\c2cccc(Cl)c2)Sc2ccccc21)NCCCN1CCOCC1`, in experiment [1], the 50% effective concentration (EC50) is 245 µM (active). Consider `CCOc1cc(/C=N/NC(=O)c2cc(-c3ccccc3)nc3ccccc23)ccc1O`, for which the CC50 in [7] was 31.8 µM (active). Regarding `ON=C1c2ccccc2-c2ccccc21`, the EC50 in experiment [1] was > 260 µM (inactive). As for `O=C(Nc1cccc2ccccc12)C12CC3CC(C1)CC(n1cnc([N+](=O)[O-])n1)(C3)C2`, the EC50 is 12.9 µM (active) in experiment [3], 12.4 µM (active) in experiment [4] and > 60 µM (not active) in [5]. With `COc1ccc(CNC(=O)COc2cc3c(c4oc(=O)cc(C)c24)CCC(C)(C)O3)cc1OC`, the CC50 in experiment [7] was > 50 µM (active).
